{"source": "patent US9872882B2", "about": "“Aurantiamide dipeptide derivatives for treatment or prevention of angiogenesis-related diseases” (Mackay Medical College, priority 2015, dated 2018)", "key": {"[1]": {"test_system": "hyperoxia-induced retinal neovascularization", "assay": "Oxygen-induced retinopathy (OIR) model", "assay_type": "in vivo, BALB/c-nude mice", "conditions": "retinal whole mounts, FIG. 5", "excerpt": "The mouse model of OIR has been widely used to induce retinal neovascularization in studies related to retinal ischaemic diseases, including AMD, and in studies evaluating the efficacy of antiangiogenic compounds. Briefly, BALB/c-nude mice at postnatal day (P7) are subjected to hyperoxia (75% oxygen) along with their nursing dam for 5 days (P12), and then to room air to produce retinal neovascularization. Neovascularization occurs upon return to normoxia and peaks at P17. All of the mice in the OR model were perfusion fixed via left ventricular puncture at the time of euthanasia, with 5 ml rhodamine-conjugated dextran. Then, angiography of retinal vasculature was performed and retinal whole mounts were prepared to score features of retinopathy."}, "[2]": {"test_system": "late EPCs", "assay": "Cell proliferation assay (MTT)", "assay_type": "cell-based, human", "conditions": "48 h treatment, FIG. 1B", "method": "(§1) This investigation conforms with the principles outlined in the Declaration of Helsinki for use of human tissue. Ethical approval was granted by the Institutional Review Board of the Mackay Memorial Hospital, Taipei, Taiwan. Informed consent was obtained from healthy donors before the collection of peripheral blood (80 mL). The peripheral blood mononuclear cells (PBMCs) were fractionated from other blood components by centrifugation on Ficoll-Paque™ plus (GE Healthcare) according to the manufacturer's instructions. CD34-positive progenitor cells were obtained and cultured. In brief, the cells were isolated from PBMCs using CD34 MicroBead kit and MACSTM Cell Separation System (all from Miltenyi Biotec). CD34-positive EPCs were maintained in MV2 complete medium (PromoCell) consisting of endothelial basal medium, 20% fetal bovine serum, hEGF, VEGF, hFGF-B, IGF-1, ascorbic acid, and heparin. 1×10^6 cells/cm^2 were seeded on fibronectin-coated dish (BD Biosciences) and maintained in 37° C. incubator under a humidified 95% air and 5% CO2 atmosphere.\nEPCs (5×10^3 cells/well) were seeded onto 96-well plates. After 24 h incubation, the culture medium was removed and cells were incubated with fresh MV2 complete medium containing 2% FBS for 48 h in the absence or presence of Fmoc-10a. […] Formazan crystal was lysed by dimethyl sulfoxide (DMSO) and absorbance was measured at 550 nm with ELISA-reader."}, "[3]": {"test_system": "late EPCs", "assay": "Cytotoxicity assay (LDH release)", "assay_type": "cell-based, human", "conditions": "48 h, even at high concentration (30 μM), FIG. 1C", "method": "as §1\nEPCs were treated with MV2 complete medium containing 2% FBS for 48 h in the absence or presence of Fmoc-10a. The percentage of LDH release was calculated from the ratio of LDH activity in the medium to LDH activity in the cell lysate after Fmoc-10a treatment."}, "[4]": {"test_system": "late EPCs", "assay": "Transwell cell migration assay", "assay_type": "cell-based, human", "conditions": "16 h treatment, FIG. 1D", "method": "as §1, with “1×10^6 cells/cm^2 were seeded on fibronectin-coated dish (BD Biosciences) and maintained in 37° C. incubator under a humidified 95% air and 5% CO2 atmosphere.” left out\nEPCs (5×10^4 cells/well) were seeded onto the upper chamber with MV2 complete medium, then incubated in the bottom chamber with MV2 complete medium containing 2% FBS with the indicated concentrations of Fmoc-10. […] Cell migration was quantified by counting the number of stained cells in 10 random fields with the inverted phase contrast microscope and photographed."}, "[5]": {"test_system": "late EPCs", "assay": "Capillary tube formation assay on Matrigel", "assay_type": "cell-based, human", "conditions": "16 h treatment, FIG. 1E", "method": "as §1\nMatrigel (BD Biosciences, Bedford, Mass.), which was used to promote the differentiation of EPCs into a capillary tube-like structure, was added to 48-well plates. […] Tube formation was quantified by measuring the long axis of each tube in 3 random fields per well by using Image-Pro Plus software."}, "[6]": {"test_system": "early EPCs", "assay": "Colony-forming assay (CFU-Hill)", "assay_type": "cell-based, human", "conditions": "FIGS. 2A&2B", "excerpt": "Isolated PBMCs are resuspended in MV2 complete medium. After 2 days, the nonadherent cells were collected and replated onto a fibronectin-coated 24-well plate. Five days later, the number of colony-forming units (CFUs) od early EPCs per well was counted."}, "[7]": {"test_system": "early EPCs", "assay": "Early EPC chemotaxis assay (Transwell)", "assay_type": "cell-based, human", "conditions": "4 hours, FIG. 2C", "method": "The chemotactic motility of early EPCs was evaluated using a Transwell. The lower filter surface was coated with gelatin. Fmoc-10a in presence or absence of MV2 complete medium was placed in the lower wells. The chamber was incubated at 37° C. for 4 hours. Cells were fixed with cold methanol and stained with 0.5% crystal violet."}, "[8]": {"test_system": "VEGF-induced vessels sprouting from aortic rings", "assay": "Aortic ring sprouting assay (ex vivo)", "design": "species or system Sprague-Dawley rats", "conditions": "VEGF 20 ng/ml, day 8, FIG. 3A", "method": "Aortas were harvested from 8- to 10-week-old Sprague-Dawley rats. Following a complete washing, the aortas were cut into 1 mm ring segments. The aortic rings were placed in the 48-well plates which were pre-coated with 130 μl Matrigel and polymerized at 37° C. The wells were subsequently overlaid with another 50 μl Matrigel for sealing. VEGF (20 ng/ml) with or without Fmoc-10a was then added to the well. The cultured medium was changed every 3 days. Sprouting endothelial cells were observed and photographed on day 8. The area of sprouting vessels was measured quantitatively by Image-Pro Plus software."}, "[9]": {"test_system": "VEGF-induced microvessel formation", "assay": "Directed in vivo angiogenesis assay (DIVAA)", "design": "species or system C57BL/6 mice", "conditions": "VEGF-containing DIVAA tubes implanted in mice, 15 days, FIG. 3B", "method": "Surgical silicone tubes were filled at 4° C. with Matrigel containing VEGF with or without Fmoc-10a. Then, the dorsal haunches of the anesthetized mice (C57BL/6 mice) were shaved and sterile prepped. A 5 mm cutaneous incision was made and a 10 mm deep subcutaneous pocket was created with a sterile hemostat. DIVAA tubes were incubated at 37° C. for 1 hour to allow gel formation and then implanted into the dorsal flank of mice. After 15 days, DIVAA tubes were taken and photographed. Neovessels were quantified by measuring the hemoglobin of the plug with the Drabkin method. All procedures involving animal experiment were approved by the Institutional Animal Care and Use Committee at Mackay Medical College."}, "[10]": {"test_system": "B16F10 melanoma cells", "assay": "Matrigel invasion assay", "assay_type": "cell-based, mouse", "conditions": "B16F10, 16 h, FIG. 4A", "method": "(§2) Mouse melanoma cell line (B16F10) was obtained from American Type Culture Collection (ATCC, Manassas, Va.) and cultured in DMEM containing 10% FBS, penicillin (100 units/ml), streptomycin (100 μg/ml), and L-glutamine (2[…]mM). Cells were maintained in humidified air containing 5% CO2 at 37° C.\nThe upper side of the filters was coated with Matrigel (BD Biosciences, Bedford, Mass.) at a concentration of 125 […]μg/cm^2. B16F10 cells (5×10^4 cells/well) were seeded onto the upper chamber with serum-free medium, then incubated in the bottom chamber with culture medium containing 10% FBS in the absence or presence of Fmoc-10a. After 16 h of treatment, cells on the upper side of the filters were mechanically removed, and those migrated on the lower side were fixed with 4% formaldehyde, then stained with 0.5% crystal violet for 10 min. Finally, invaded cells were quantified by counting the number of stained cells in 10 random fields with the inverted phase contrast microscope and photographed."}, "[11]": {"test_system": "VEGF release from B16F10 melanoma cells", "assay": "VEGF ELISA assay", "assay_type": "cell-based, mouse", "conditions": "B16F10, 24 hr, ELISA of supernatant, FIG. 4B", "method": "as §2\nB16F10 cells were treated with various concentrations of Fmoc-10a or vehicle for 24 hr, and then the supernatant was collected to examine the amount of vascular endothelial growth factor (VEGF) protein. VEGF mouse ELISA Kit (Novex, Invitrogen) was used according to the manufacturer's instructions."}, "[12]": {"test_system": "B16F10 melanoma", "assay": "Subcutaneous xenograft model", "assay_type": "in vivo, C57BL/6 mice", "conditions": "daily intraperitoneal injection, FIG. 4C", "method": "B16F10 cells (2×10^6) in a volume of 100 μL were injected subcutaneously into the right flank of the C57BL/6 mice. After 9 days, when tumors reached 2 mm in diameter, the mice were randomly given vehicle or the indicated doses of Fmoc-10a daily by intraperitoneal injection. Tumor size and body weight were measured every day. The tumor volume was calculated according to the following formula: V=(length×width^2/2). In accordance with the Animal Ethics Committee, the experiments should be stopped when an unbearable situation appeared in animals."}, "[13]": {"test_system": "B16F10 cells", "assay": "Experimental metastasis model", "assay_type": "in vivo, C57BL/6 mice", "conditions": "B16F10 tail vein; 1.5 or 4.5 mg/kg intraperitoneally every day, FIG. 4D", "method": "B16F10 cells (2×10^6) were slowly injected into the lateral tail vein of C57BL/6 mice to initiate tumor metastasis. Fmoc-10a (1.5 or 4.5 mg/kg) was intraperitoneally administered to mice every day from 3 days before tumor cell injection to 21 days after tumor cell injection (the day sacrificed)."}}, "data": [{"molecule": "Avastin: Avastin (10 μg) was used as positive control in the OIR model [reference compound]", "values": [{"measurement": "hyperoxia-induced pathological neovascularization in mice", "setting": "[1]", "result": "significantly blocks hyperoxia-induced pathological neovascularization"}]}, {"molecule": "CC(C)[C@H](NC(=O)OCC1c2ccccc2-c2ccccc21)C(=O)N[C@@H](CO)Cc1ccccc1", "note": "[Fmoc-10a, (9H-fluoren-9-yl)methyl (S)-1-((R)-1-hydroxy-3-phenylpropan-2-ylamino)-3-methyl-1-oxobutan-2-ylcarbamate]", "values": [{"measurement": "cell proliferation of late EPCs", "setting": "[2]", "result": "suppresses cell proliferation of late EPCs in a concentration-dependent manner"}, {"measurement": "LDH release of late EPCs", "setting": "[3]", "result": "does not induce LDH release"}, {"measurement": "cell migration of late EPCs", "setting": "[4]", "result": "significantly inhibits cell migration"}, {"measurement": "tube formation of late EPCs", "setting": "[5]", "result": "significantly inhibits"}, {"measurement": "CFU-Hill colonies of early EPCs", "setting": "[6]", "result": "significantly inhibits CFU-Hill colonies"}, {"measurement": "chemotaxis of early EPCs", "setting": "[7]", "result": "markedly suppresses chemotaxis"}, {"measurement": "VEGF-induced vessels sprouting from aortic rings", "setting": "[8]", "result": "dramatically abrogated VEGF-induced vessels sprouting"}, {"measurement": "microvessel formation in the Matrigel plugs (hemoglobin content)", "setting": "[9]", "result": "attenuated concentration-dependently microvessel formation"}, {"measurement": "cell invasion of melanoma cells", "setting": "[10]", "result": "significantly inhibits cell invasion"}, {"measurement": "production of VEGF in melanoma cells", "setting": "[11]", "result": "significantly inhibits"}, {"measurement": "tumor growth of melanoma cells", "setting": "[12]", "result": "potently blocks tumor growth of melanoma cells in a dose-dependent manner"}, {"measurement": "lung metastasis of melanoma cancer (pulmonary colony number)", "setting": "[13]", "result": "substantially suppresses lung metastasis"}, {"measurement": "hyperoxia-induced pathological neovascularization in mice", "setting": "[1]", "result": "significantly blocks hyperoxia-induced pathological neovascularization"}]}]}
